Data taken from US20080286388A1, “Pharmaceutical Composition and Non Dependence Coffee Comprising Edible Carboxylic Acid and/or Its Acid Salts and Coffeine” (priority 2004, published 2008).

Columns and labels:
[1] = tested on: person; experiment: Tests for increase the ability of learning and memory; format: in vivo, human; settings: Homo sapiens, po; three pieces of 600 mg, average of four tests before and after ingesting; read-out: Increase rate (%) of memory ability
Protocol: A person administrates see a random series of 100 numbers, typed by PC, for 10 minutes and memory it. Then recite and write down the memorized number series. To check the recited series with the original one to see how many numbers are correct. In each testing at least has 10 minutes interval, and repeat four times. […] Each kind of drugs testing is done in half day, morning or afternoon only. The testing results were counted by one correct number for one point. Make the average value of four times testing of before and after drug ingesting, respectively. The increase of learning or memory ability is calculated by following equation and listed in Table 14: Rate of increase of memory ability=[(average value of four time testing before ingesting drug)−(average value of four times testing after ingesting drug)]×100%/(average value of four time testing before ingesting drug)

[2] = tested on: mouse's leaching cell solution (abdominal cavity cells), histamine release by 48/80 compound; experiment: Drug inhibiting effect on histamine leaching from mouse abdominal cavity cells treated with 48/80 compound; format: cell-based; settings: for inhibiting rate (%) (adding 5% of coffee extract) / Inhibiting rate (%) (non adding coffee extract): testing drug 100 μg/ml
Protocol: This is a comparative testing for drug depressing effect on the amount of leaching histamines when is treated with 48/80 (Sigma, St. MO, USA) compound.
(1). Preparation of Leaching Cell Solution from Mouse Body.
A mouse is killed and bloodletting. Then 10 ml of Locke's solution containing 0.1% bovine serum protein is injected into its abdominal cavity. After abdominal cavity being light massaged, the cavity is cut and the Locke's solution is removed. Cavity is washed with another 5 ml of Locke's solution, and this washed solution is added to the latter one. This combined solution is centrifuged at 600 rpm for 5 minutes. The sediments are washed with 5 ml of cool Locke's solution. Adding 3 ml of cold Locke's solution to the washed sediments, then a leached cell solution of abdominal cavity is obtained. (The composition of Locke's solution is: NaCL […], KCL 0.2%, CaCL2 0.15%, glucose 1.0%, in w/v, and the rest distillated water.)
(2). Drug Inhibiting Effect on the Amount of Leaching Histamines when Treated with 48/80 Compound.
1.0 ml of each of those solutions in last term is mixed with 0.3 ml of mouse's leaching cell solution and 0.5 ml of Locke's solution. This mixture is cultivated at 37° C. for 5 minutes. Then adding 0.2 ml of Locke's solution of 48/80 compound (1 mg/100 ml) and cultivated at 37° C. for 10 minutes. Then the reaction is stopped by cooling, and centrifuged at 2,500 rpm for 10 minutes. 1.7 ml of decanted solution and 0.3 ml of sediments are obtained.
0.1 ml of water and 0.2 ml of 100% trichloroacetic acid are added to the decanted solution. 1.5 ml of Locke's solution and 0.2 ml of 100% trichloroacetic acid are added to the sediments washed solution. They are cultivated at room temperature for 30 minutes. After cultivation, the mixtures are centrifuged at 3,000 rpm for 15 minutes, respectively. 0.35 ml of each of the former two solutions is sampled. In each sample, 1.65 ml of water, 0.4 ml of 1N NaOH and 0.1 ml of 0.5% OPT (o-phthalic aldehyde) in methanol are added and cultivated at room temperature for 4 minutes. The reaction is stopped by adding 0.2 ml of 2M citric acid. And finally, determine the amount of released histamines in the tested solution by fluorescence method. By the analysis, results of the inhibiting rate of histamines could be calculated.
Locke's solution is instead of each drug in control group, and instead of both drug and 48/80 compound solution in blank group.
The histamine releasing rate (A) can be calculated by following equation. […] Where (Hs) is the total amount of histamine in the decanted solution, and (Hr) is the total amount of histamine in the sediment. (A)=[(Hs)/{(Hs)+(Hr)}]×100%. Then the inhibiting rate is:
=100−[(A−A in blank group)/(A−A in control group)]×100%.

[3] = dose 2 μg/ml, adding 5% of coffee extract
[4] = dose 5 μg/ml, adding 5% of coffee extract
[5] = dose 10 μg/ml, adding 5% of coffee extract
[6] = dose 100 μg/ml, adding 5% of coffee extract
[7] = dose 300 μg/ml, adding 5% of coffee extract
[8] = dose 1000 μg/ml, adding 5% of coffee extract

| Compound | inhibiting rate (%) (adding 5% of coffee extract) ([2]; adding 5% of coffee extract) | Inhibiting rate (%) (non adding coffee extract) [2] | other results |
| --- | --- | --- | --- |
| O=C(O)/C=C\C(=O)O [Maleic acid] |  |  | change in vivo at 1800 mg [1]: 370% |
| CC1(C)[C@@H](O[C@H]2O[C@H](C(=O)[O-])[C@@H](O)[C@H](O)[C@H]2O[C@@H]2O[C@H](C(=O)[O-])[C@@H](O)[C@H](O)[C@H]2O)CC[C@]2(C)[C@H]3C(=O)C=C4[C@@H]5C[C@@](C)(C(=O)[O-])CC[C@]5(C)CC[C@@]4(C)[C@]3(C)CC[C@@H]12.[Na+].[Na+].[Na+] [Trisodium glycyrrhizinate, reference compound] | 48.3 | 30.9 | IC50 value (concentration for inhibiting rate of 50%) ([2]; adding 5% of coffee extract, calculated by figure): 200 µg/mL; Histamine releasing rate (%) [2, 3]: 90.1%; Inhibiting rate (%) [2, 3]: 0.8%; Histamine releasing rate (%) [2, 4]: 89.5%; Inhibiting rate (%) [2, 4]: 1.6%; Histamine releasing rate (%) [2, 5]: 88.1%; Inhibiting rate (%) [2, 5]: 3.3%; Inhibiting rate (%) ([2]; dose 50 μg/ml, adding 5% of coffee extract): 17.8%; Histamine releasing rate (%) [2, 6]: 65.5%; Inhibiting rate (%) [2, 6]: 31.1%; Histamine releasing rate (%) [2, 7]: 32.7%; Inhibiting rate (%) [2, 7]: 70.5%; Histamine releasing rate (%) [2, 8]: 9.2%; Inhibiting rate (%) [2, 8]: 100% |
| O=C([O-])CC(O)(CC(=O)O)C(=O)[O-].[K+].[K+] [dipotassium hydrogen citrate] | 48.7 | 40.0 |  |
| O=C([O-])CC(O)(CC(=O)[O-])C(=O)O.[Na+].[Na+] [disodium hydrogen citrate] | 49.4 | 39.1 |  |
| O=C([O-])CC(O)(CC(=O)O)C(=O)O.[K+] [potassium dihydrogen citrate] | 100 | 100 |  |
| O=C([O-])/C=C/C(=O)O.[K+] [potassium hydrogen fumate] | 100 | 100 |  |
| O=C(O)CC(O)C(=O)O.[K] (centres unmarked) [potassium hydrogen malate] | 100 | 100 |  |
| O=C([O-])/C=C\C(=O)O.[K+] [potassium hydrogen maleate] | 100 | 100 |  |
| O=C([O-])CCC(=O)O.[K+] [potassium hydrogen succinate] | 100 | 100 |  |
| O=C([O-])C(O)C(O)C(=O)O.[K+] (centres unmarked) [potassium hydrogen tartrate] | 100 | 100 |  |
| O=C(O)CC(O)(CC(=O)O)C(=O)[O-].[Na+] [sodium dihydrogen citrate] | 100 | 100 |  |
| O=C([O-])/C=C/C(=O)O.[Na+] [sodium hydrogen fumate] | 100 | 100 |  |
| O=C([O-])CC(O)C(=O)O.[Na+] (centres unmarked) [sodium hydrogen malate] | 100 | 100 |  |
| O=C([O-])/C=C\C(=O)O.[Na+] [sodium hydrogen maleate] | 100 | 100 |  |
| O=C([O-])CCC(=O)O.[Na+] [sodium hydrogen succinate] | 100 | 100 |  |
| O=C([O-])C(O)C(O)C(=O)O.[Na+] (centres unmarked) [sodium hydrogen tartrate] | 100 | 100 |  |
| Diphenhydramine citrate [reference compound] | 55.5 | 37.5 |  |
